US20070015733A1, “Aryl Phosphate Derivatives of d4T having Activity Against Resistant HIV Strains” (Parker Hughes Institute, priority 1998, published 2007)
Like-named read-outs stand apart in the source and are kept apart here.

Key:
[1] = tested on: HIV-1 A17 (Y181C mutant, NNRTI-resistant); assay: p24 antigen assay, A17 strain in PBMC; type: cell-based; conditions: Human immunodeficiency virus 1, PBMC
Text: (§1) In vitro assays of anti-HIV-1 activity.
(§2) Viruses. 20 primary clinical isolates with genotypic and/or phenotypic NRTI-resistance (isolated in the laboratory of D. Richman) and 10 clinical isolates with phenotypic stavudine (d4T) resistance (obtained through the AIDS Research and Reference Reagent Program, NIAID) were used in the current study. The HIV-1 strains HTLVIIIB (wildtype RT, NRTI-sensitive, NNRTI-sensitive), A17 (Y181 C mutant, NNRTI-resistant), A17-variant (Y181C+K103N mutant, NNRTI-resistant), and RT-MDR (M41 L, V106N, T215Y; NRTI-resistant, NNRTI-resistant) were also obtained from the AIDS Research and Reference Reagent Program, NIAID.
(§3) Antiviral susceptibility assays.

[2] = tested on: HIV-1 HTLVIIIB; assay: microbe, parasite or virus in culture
Method in brief: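 PHA- and IL-2-stimulated human PBMC from HIV-negative donors were infected with HIV-1 (MOI 0.001–0.1, 1 h, 37 °C) and cultured with compound (0.0001–100 μM). Supernatant p24 was measured by EIA on day 6 or 7; percent inhibition was calculated against untreated infected controls and IC50 was derived from it.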

[3] = tested on: HIV-1 A17-variant (Y181C+K103N mutant, NNRTI-resistant); assay: p24 antigen assay, A17-variant strain in PBMC; type: cell-based; conditions: Human immunodeficiency virus 1, PBMC
Text: as §1, §2, §3

[4] = in vitro; conditions: human
Description: (§4) Percent inhibition of viral replication was calculated by comparing the p24 and RT activity values from the test substance-treated infected cells with those from untreated infected cells. In parallel, the cytotoxicity of the compounds was examined using a microculture tetrazolium assay (MTA) of cell proliferation, as described.in the Zarling, Enrice, and Uckun articles Supra).
(§5) Cellular Assays of Anti-HIV Activity and Cytotoxicity. […] Percent viral inhibition was calculated by comparing the RT activity values from the test substance-treated infected cells with RT values from untreated infected cells (i.e., virus controls).

[5] = tested on: HIV-1 (strain: HTLVIIIB); assay: microbe, parasite or virus in culture; type: cell-based
Description: as §4, §5

[6] = Human immunodeficiency virus 1, PBMC
[7] = Human immunodeficiency virus 1, PBMC, in Homo sapiens, read-out: IC50, compound 1c compared to zidovudine
[8] = Human immunodeficiency virus 1, PBMC, in Homo sapiens, read-out: IC90, compound 1c compared to zidovudine
[9] = Human immunodeficiency virus 1, read-out: IC50 HTLVIIIB
[10] = Human immunodeficiency virus 1, PBMC, read-out: IC50 value for inhibition of RT activity, peripheral blood mononuclear cells
[11] = Human immunodeficiency virus 1, read-out: IC50 [RT], PBMNC, unit not printed in Table 2 (0.040 = 40 nM)
[12] = Human immunodeficiency virus 1, read-out: IC50 [p24], PBMNC, unit not printed in Table 2 (0.018 = 18 nM)
[13] = Human immunodeficiency virus 1, read-out: PBMNC IC50 [RT], PBMNC, unit not given in Table 5 (0.04 = 40 nM)

Row | SMILES | IC50 ([1]; read-out: IC50 A17) | SI(CC50/IC50) [2] | IC50 [2, 6] | IC90 [2, 6] | IC50 [2, 7] | IC90 [2, 8] | IC50 [2, 9] | IC50 ([3]; read-out: IC50 A17V) | IC50 [1] | IC50 [3] | IC50 [5, 10] | IC50 [5, 11] | IC50 [5, 12] | IC50 [5, 13] | also measured
1 | Cc1cn([C@H]2C[C@H](N=[N+]=[N-])[C@@H](CO)O2)c(=O)[nH]c1=O [AZT, 3′-azido-3′-deoxythymidine] | 0.055 nM | 31,867 | 3 ± 1 nM | 93 ± 34 nM | 3 ± 1 nM | 93 ± 34 nM | 4 ± 1 nM | 0.005 nM |  |  |  |  |  |  | IC50 ([4]; CEM IC50 [MTA]): > 10000 nM; IC50 ([5]; Human immunodeficiency virus 1, PBMC, peripheral blood mononuclear cells, read-out: IC50 value for inhibition of RT activity): 3 nM; IC50 ([5]; Human immunodeficiency virus 1, PBMNC, unit not given in Table 5 (0.04 = 40 nM), read-out: PBMNC IC50 [RT]): 3 nM
2 | COC(=O)C(C)NP(=O)(OC[C@@H]1C=C[C@H](n2cc(C)c(=O)[nH]c2=O)O1)Oc1ccc(Br)cc1 (some centres unmarked) [Compound 1c, d4T-5′-[p-bromo-phenylmethoxyalaninyl phosphate]] | 36 ± 21 nM |  | 1 nM | 52 ± 24 nM | 1 nM | 45 ± 28 nM | 1 nM | 47 ± 27 nM | < 1 nM | < 1 nM | 42 nM | 42 nM | 22 nM | 40 nM | IC50 [4]: > 10000 nM
3 | Cc1cn([C@H]2C=C[C@@H](CO)O2)c(=O)[nH]c1=O [d4T, 2′,3′-didehydro-2′,3′-dideoxythymidine] |  | 196 | 23 ± 8 nM | 1470 ± 614 nM |  |  | 18 nM |  |  |  | 40 nM | 40 nM | 18 nM | 40 nM | IC50 ([4]; IC50 [MTA]): > 10000 nM; IC50 ([5]; Human immunodeficiency virus 1, PBMC, read-out: IC50 value for inhibition of p24 production, peripheral blood mononuclear cells): 18 nM; IC50 ([5]; Human immunodeficiency virus 1, read-out: PBMNC IC50 [RT], PBMNC, Table 4): 4 nM
4 | Cc1ccnc2c1NC(=O)c1cccnc1N2C1CC1 [nevirapine] |  |  | 24 ± 7 nM | 1100 ± 478 nM |  |  |  |  | 47000 ± 7000 nM | 32000 ± 7000 nM |  |  |  |  | SI(CC50/IC50) ([2]; HTLVIIIB, PBMC): 213
